Experimental data: patent US4563306A, “Peptides and process for preparing the same” (Tanabe Seiyaku Co., Ltd., priority 1983, dated 1986)

Tests used:
Type in all cases: in vivo
Serum TSH levels = assay: TSH-releasing activity (serum TSH by double-antibody radioimmunoassay after i.v. administration); conditions: male JCL: SD rats, intravenous, serum TSH 15 minutes after administration; parallel line assay, TRH = 1
Description: (1) TSH-releasing activity:
A test compound dissolved in a 0.1% BSA (bovine serum albumin)-containing physiological saline was intravenously administered to a group of five male JCL: SD rats. Fifteen minutes after the administration, blood was taken from the abdominal aorta under anesthesia. Serum TSH levels were determined by the double-antibody radioimmunoassay method (Midgley et al., Endocrinology., 79, 10 (1966)). The BSA-containing physiological saline was used for control instead of the test compound solution.

male STD/ddy mice [1] = assay: Antagonistic effect on pentobarbital anesthesia; conditions: pentobarbital sodium 55 mg/kg i.p., test compound intravenous 10 minutes later, duration of anesthesia, parallel line assay, TRH = 1
Description: (2) Antagonistic effect on pentobarbital anesthesia:
Pentobarbital sodium was intraperitoneally administered to a group of ten male STD/ddy mice at a dose of 55 mg/kg. Ten minutes after the administration of pentobarbital sodium, a test compound dissolved in physiological saline was intravenously administered to the mice which had lost the righting reflex. The duration of anesthesia was measured as the time from the end of administration of the test compound until the righting reflex regained. Physiological saline was used for control instead of the test compound solution (Prange et al., Life Science, 14, 447-455, (1974)).

male STD/ddy mice [2] = assay: Increasing effect on spontaneous locomotor activity (Ambulometer); conditions: intraperitoneal, activity measured for 60 minutes, parallel line assay, TRH = 1
Description: (3) Increasing effect on spontaneous locomotor activity:
A group of five male STD/ddY mice were individually placed in Ambulometer (i.e., an apparatus for measuring spontaneous locomotor activity; manufactured by OHARA IKA Co.) for 30 minutes to acclimatize to the apparatus. Thereafter, a test compound dissolved in physiological saline was intraperitoneally administered to the mice and, immediately after administration of the test compound, the spontaneous locomotor activity was measured for 60 minutes. Physiological saline was used for control instead of the test compound solution.

male STD/ddy mice [3] = assay: Antagonistic effect on reserpine-induced hypothermia; conditions: intraperitoneal, rectal temperature 30, 60, 120 and 180 minutes after administration, parallel line assay, TRH = 1
Description: (4) Antagonistic effect on reserpine-induced hypothermia:
A test compound dissolved in physiological saline was intraperitoneally administered to a group of five male STD/ddy mice, and the rectal temperature was measured 30, 60, 120 and 180 minutes after the administration of the test compound. The increase in temperature in the treated group was compared to that in the control group which received physiological saline instead of the test compound solution.

male STD/ddy mice [4] = assay: Potentiating effect on methamphetamine-induced hyperlocomotion; conditions: methamphetamine 0.2 mg/kg and test compound intraperitoneally at the same time, locomotor activity for 60 minutes, parallel line assay, TRH = 1
Description: (5) Potentiating effect on methamphetamine-induced hyperlocomotion:
A group of ten male STD/ddY mice were individually placed in Ambulometer for 30 minutes to acclimatize to the apparatus.

Row | Structure (SMILES) | TSH-releasing activity, potency ratio relative to TRH (Serum TSH levels) | Antagonistic effect on pentobarbital anesthesia, potency ratio relative to TRH (male STD/ddy mice [1]) | Increasing effect on spontaneous locomotor activity, potency ratio relative to TRH (male STD/ddy mice [2]) | Antagonistic effect on reserpine-induced hypothermia, potency ratio relative to TRH (male STD/ddy mice [3]) | Potentiating effect on action of methamphetamine, potency ratio relative to TRH (male STD/ddy mice [4])
1 | NC(=O)[C@@H]1CCCN1C(=O)[C@H](Cc1c[nH]cn1)NC(=O)[C@@H]1Cc2ccccc2C(=O)N1 [N^α -[(3 S)-1-oxo-1,2,3,4-tetrahydroisoquinoline-3-carbonyl]-L-histidyl-L-prolinamide] | 1 | 10 | 10 | 10 | 10
2 | NC(=O)[C@@H]1CCCN1C(=O)[C@H](Cc1c[nH]cn1)NC(=O)[C@@H]1CCC(=O)N1 [TRH, L-pyroglutamyl-L-histidyl-L-prolinamide] | 1 | 1 | 1 | 1 | 1
